These are literature values, as cited in patent US9265822B2 (priority 2009, dated 2016).

This series has as its system American isolates of H3N2.

Turning to `NC12CC3CC(CC(C3)C1)C2` [amantadine], the measured resistance is on record as 91%.
In the case of `CC(N)C12CC3CC(CC(C3)C1)C2` (centres unmarked) [rimantadine], the measured resistance was 91%.
